How the values were obtained:
[1] = tested on: IL-4 stimulated CD23 upregulation in human Ramos B cells (JAK-1/JAK-3, Stat-6); assay: Assay for Ramos B-Cell Line Stimulated with IL-4 (CD23 upregulation, FACS); assay type: cell-based; conditions: Table III Example 3
How it was run: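 Flow cytometry of CD23 staining after 20-24 h IL-4 stimulation (50 units/mL final) of human Ramos B cells in RPMI with 5% serum. Cells, 5×10^4 per point, received compound or DMSO vehicle for 1 h at 37° C prior to stimulation.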

[2] = tested on: primary human T-cells (IL-2 induced proliferation, JAK-1/JAK-3, Stat-5); assay: Primary Human T-Cell Proliferation Assay Stimulated with IL-2 (CellTiter-Glo); assay type: cell-based; conditions: Table III Example 4
How it was run: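 Read-out is intracellular ATP luminescence (CellTiter-Glo) after 72 h at 37 °C of IL-2-driven growth. Cells, pre-stimulated via TCR and CD28 then washed free of IL-2, were resuspended in Yssel's medium, given 80 U/mL IL-2 in the cell suspension plus duplicate compound; unstimulated wells lacked IL-2.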

| Compound | IC50 [1] | IC50 [2] |
| --- | --- | --- |
| CNS(=O)(=O)c1cc(Nc2ncc(C)c(Nc3ccc(CNS(=O)(=O)C4CC4)cc3)n2)ccc1C [Compound I-185, N4-(4-cyclopropylsulfonylaminomethyl)phenyl-5-methyl-N2-(4-methyl-3-methylaminosulfonyl)phenyl-2,4-pyrimidinediamine] | 22.5 nM | 41.1 nM |
| CCNS(=O)(=O)c1cc(Nc2ncc(C)c(Nc3ccc(CNS(=O)(=O)C4CC4)cc3)n2)ccc1C [Compound I-186, N4-(4-cyclopropylsulfonylaminomethyl)phenyl-N2-(3-ethylaminosulfonyl-4-methyl)phenyl-5-methyl-2,4-pyrimidinediamine] | 19.5 nM | 40 nM |
| CCCNS(=O)(=O)c1cc(Nc2ncc(C)c(Nc3ccc(CNS(=O)(=O)C4CC4)cc3)n2)ccc1C [Compound I-187, N4-(4-cyclopropylsulfonylaminomethyl)phenyl-5-methyl-N2-(4-methyl-3-propylaminosulfonyl)phenyl-2,4-pyrimidinediamine] | 72.4 nM | 101 nM |
| C#CCNS(=O)(=O)c1cc(Nc2ncc(C)c(Nc3ccc(CNS(=O)(=O)C4CC4)cc3)n2)ccc1C [Compound I-188, N4-(4-cyclopropylsulfonylaminomethyl)phenyl-5-methyl-N2-(4-methyl-3-propargylaminosulfonyl)phenyl-2,4-pyrimidinediamine] | 43.6 nM | 573 nM |
| Cc1ccc(Nc2ncc(C)c(Nc3ccc(CNS(=O)(=O)C4CC4)cc3)n2)cc1S(=O)(=O)NC(C)C [Compound I-189, N4-(4-cyclopropylsulfonylaminomethyl)phenyl-N2-(3-isopropylaminosulfonyl-4-methyl)phenyl-5-methyl-2,4-pyrimidinediamine] | 35.2 nM | 34.4 nM |
| COCCNS(=O)(=O)c1cc(Nc2ncc(C)c(Nc3ccc(CNS(=O)(=O)C4CC4)cc3)n2)ccc1C [Compound I-190, N4-(4-cyclopropylsulfonylaminomethyl)phenyl-N2-[3-(2-methoxyethyl)aminosulfonyl-4-methyl]phenyl-5-methyl-2,4-pyrimidinediamine] | 72.6 nM | 101 nM |
| COCCCNS(=O)(=O)c1cc(Nc2ncc(C)c(Nc3ccc(CNS(=O)(=O)C4CC4)cc3)n2)ccc1C [Compound I-191, N4-(4-cyclopropylsulfonylaminomethyl)phenyl-N2-[3-(3-methoxypropyl)aminosulfonyl-4-methyl]phenyl-5-methyl-2,4-pyrimidinediamine] | 51.2 nM | 79.9 nM |
| Cc1ccc(Nc2ncc(C)c(Nc3ccc(CNS(=O)(=O)C4CC4)cc3)n2)cc1S(=O)(=O)NCC1CC1 [Compound I-192, N2-(3-cyclopropylmethylaminosulfonyl-4-methyl)phenyl-N4-(4-cyclopropylsulfonylaminomethyl)phenyl-5-methyl-2,4-pyrimidinediamine] | 54.7 nM | 43.4 nM |
| Cc1ccc(Nc2ncc(C)c(Nc3ccc(CNS(=O)(=O)C4CC4)cc3)n2)cc1S(=O)(=O)NCc1ccccc1 [Compound I-195, N2-(3-benzylaminosulfonyl-4-methyl)phenyl-N4-(4-cyclopropylsulfonylaminomethyl)phenyl-5-methyl-2,4-pyrimidinediamine] | 66.4 nM | 104 nM |
| Cc1ccc(Nc2ncc(C)c(Nc3ccc(CNS(=O)(=O)C4CC4)cc3)n2)cc1S(=O)(=O)Nc1ccccc1 [Compound I-202, N4-(4-cyclopropylsulfonylaminomethyl)phenyl-5-methyl-N2-(4-methyl-3-phenylaminosulfonyl)phenyl-2,4-pyrimidinediamine] | 86.5 nM | 184 nM |
| CNS(=O)(=O)c1ccc(Nc2ncc(C)c(Nc3cccc(CNS(=O)(=O)C4CC4)c3)n2)cc1 [Compound I-207, N4-(3-cyclopropylsulfonylaminomethyl)phenyl-5-methyl-N2-(4-methylaminosulfonyl)phenyl-2,4-pyrimidinediamine] | 86.5 nM | 158 nM |
| CCNS(=O)(=O)c1cccc(Nc2ncc(C)c(Nc3cccc(CNS(=O)(=O)C4CC4)c3)n2)c1 [Compound I-208, N4-(3-cyclopropylsulfonylaminomethyl)phenyl-N2-(3-ethylaminosulfonyl)phenyl-5-methyl-2,4-pyrimidinediamine] | 74.3 nM | 45.8 nM |
| COCCNS(=O)(=O)c1cc(Nc2ncc(C)c(Nc3cccc(CNS(=O)(=O)C4CC4)c3)n2)ccc1C [Compound I-210, N4-(3-cyclopropylsulfonylaminomethyl)phenyl-N2-[3-(2-methoxyethyl)aminosulfonyl-4-methyl]phenyl-5-methyl-2,4-pyrimidinediamine] | 128 nM | 143 nM |
| Cc1cnc(Nc2ccc(S(N)(=O)=O)cc2)nc1Nc1ccc2c(c1)CCN(S(=O)(=O)C1CC1)C2 [II-1, N2-(4-aminosulfonyl)phenyl-N4-[(N-cyclopropylsulfonyl)-1,2,3,4-tetrahydroisoquinolin-6-yl]-5-methyl-2,4-pyrimidinediamine] | 42.3 nM | 108 nM |
| Cc1ccc(Nc2ncc(C)c(Nc3ccc4c(c3)CCN(S(=O)(=O)C3CC3)C4)n2)cc1S(N)(=O)=O [II-3, N2-(3-aminosulfonyl-4-methyl)phenyl-N4-[(N-cyclopropylsulfonyl)-1,2,3,4-tetrahydroisoquinolin-6-yl]-5-methyl-2,4-pyrimidinediamine] | 19.4 nM | 47.5 nM |
| Cc1cnc(Nc2cccc(S(N)(=O)=O)c2)nc1Nc1ccc2c(c1)CN(S(=O)(=O)C1CC1)C2 [II-8, N2-(3-Aminosulfonyl-phenyl)-N4-[(2-cyclopropylsulfonyl)-isoindolin-5-yl]-5-methyl-2,4-pyrimidinediamine] | 97.9 nM | 147 nM |

Reference: patent US9481654B2, “Compositions and methods for inhibition of the JAK pathway” (Rigel Pharmaceuticals, Inc., priority 2006, dated 2016)
